According to paper PMC6017358 (Molecules : A Journal of Synthetic Chemistry and Natural …, 2018):
Values after ≈ are worked out from the molar mass of the structure shown. Values joined by “and” are separate entries in the source; they are usually repeats but may differ in a detail not shown here. Equal entries are not always repeated. Structures can show the parent of a compound that is named as a salt. Where two headings read alike, the source gives them in different places.

What was measured:
[1] = system: breast cancer cell line MCF-7; experiment: In vitro cytotoxicity viability assay (crystal violet); type: cell-based; settings: Homo sapiens, MCF7
Protocol: (§1) The cells were seeded in 96-well plates at a cell concentration of 1 × 10^4 cells per well in 100 µL of growth medium. Fresh medium containing different concentrations of the test sample was added 24 h after seeding. Serial two-fold dilutions of the tested chemical compound were added to confluent cell monolayers dispensed into 96-well, flat-bottomed microliter plates (Falcon, NJ, USA) using a multichannel pipette. The microliter plates were incubated at 37 °C in a humidified incubator with 5% CO2 for a period of 48 h. Three wells were used for each concentration of the test sample. Control cells were incubated without test sample and with or without DMSO. The little percentage of DMSO present in the wells (maximal 0.1%) was found not to affect the experiment. After incubation of the cells at 37 °C, various concentrations of sample were added, and the incubation was continued for 24 h and viable cells yield was determined by a colorimetric method. In brief, after the end of the incubation period, media were aspirated and the crystal violet solution (1%) was added to each well for at least 30 min. The stain was removed and the plates were rinsed using tap water until all excess stain is removed. Glacial acetic acid (30%) was then added to all wells and mixed thoroughly, and then the absorbance of the plates were measured after gently shaken on microplate reader (TECAN, Inc., Morrisville, NC, USA), using a wavelength of 490 nm. All results were corrected for background absorbance detected in wells without added stain. Treated samples were compared with the cell control in the absence of the tested compounds. All experiments were carried out in triplicate. The cell cytotoxic effect of each tested concentration was calculated. The optical density was measured with the microplate reader (SunRise, TECAN, Inc., Morrisville, NC, USA) to determine the number of viable cells and the percentage of viability was calculated as [1 − (ODt/ODc)] × 100% where ODt is the mean optical density of wells treated with the tested sample and ODc is the mean optical density of untreated cells. The relation between surviving cells and drug concentration is plotted to get the survival curve of each tumor cell line after treatment. […] The biological evaluation was done at the Regional Center for Mycology & Biotechnology, Al-Azhar University.

[2] = system: lung cancer cell line A-549; experiment: as above; type: cell-based; settings: Homo sapiens, A549
Protocol: as §1

[3] = system: rats; settings: oral administration in rats; cited from earlier work

Compound	IC50 [1]	IC50 [2]	LD50 [3]	IC50 ([1]; MCF-7, read-out: IC50)	IC50 ([2]; read-out: IC50)
CP(=O)(O)CCC(N)C(=O)O (centres unmarked) [Phosphinothricin, 2-amino-4-(hydroxymethyl-phosphinylbutyric acid ammonium salt]	32.6 µg/mL and 180 µM	45.8 µg/mL and 253 µM	2170 mg/kg		
NCCCC(O)(P(=O)(O)O)P(=O)(O)O [Alendronate, reference compound]				89.4 mg/L (≈ 359 µM)	19 mg/L (≈ 76.3 µM)
